Test results taken from US11242337B2, “Compounds useful for treating gastrointestinal tract disorders” (Ardelyx, Inc., priority 2017, dated 2022).

Key:
gastrointestinal transit = assay: Restoration of gastrointestinal motility in opioid induced constipation (loperamide); assay type: in vivo, mice; settings: loperamide s.c., Evans Blue small intestinal transit 30 minutes
Method: Approximately eight-week old, female, CD1 […] are purchased from Envigo (Livermore, Calif.), are housed 4 per cage and acclimated for at least 48 hours before study initiation. Animals are fed standard laboratory rodent chow Harlan Teklad Global 2018 (Madison, Wis.). Animals have ad libitum access to food and water for the duration of the acclimation period and are maintained in a temperature and humidity controlled room on a standard light/dark cycle of 6 AM to 6 PM. Following an overnight fast, with free access to water, animals are dosed by oral gavage with varying doses of test compound or vehicle (3 mM HCl, 0.01% Tween80), at a dose volume of 5 mL/kg. […] For an individual animal, the length travels by the Evans Blue dye front is divided by the length of the whole small intestine, measured from the pylorus to the cecum, and multiplied by 100, to provide the distance of the small intestine travelled by the dye as a percentage.

[1] = system: absorption of sodium from the intestinal lumen; assay: Inhibition of intestinal sodium absorption in rats; assay type: in vivo, Sprague Dawley rats; settings: 13-hours post-dose; for response vs control in vivo at 0.03 mg/kg: oral gavage 0.03 mg/kg; for response vs control in vivo at 0.1 mg/kg: oral gavage 0.1 mg/kg; for FFS (1-5): rats, group median fecal form score, 1 normal pellet to 5 liquid fecal streams; for response vs control in vivo at 0.3 mg/kg: oral gavage 0.3 mg/kg
Method: Urinary sodium excretion and fecal form were measured to assess the ability of selected example compounds to inhibit the absorption of sodium from the intestinal lumen. Eight-week old, male, Sprague Dawley rats were purchased from Envigo (Livermore, Calif.), were housed 2 per cage and acclimated for at least 48 hours before study initiation. Animals were fed. Harlan Teklad Global TD.160470 rodent chow (Madison, Wis.), standard laboratory rodent chow Harlan Teklad Global 2018 with the addition of 0.4% inorganic phosphorous. Animals had ad libitum access to food and water for the duration of the study and were maintained in a temperature and humidity controlled room on a standard light/dark cycle of 6 AM to 6 PM. On the day of study initiation, rats (n=5/group) were dosed by oral gavage with test compound or vehicle (3 mM HCl, 0.01% Tween80) at a dose volume of […]. Immediately after dose administration animals were placed in individual metabolic cages. At 13-hours post-dose, urine samples were collected and fecal form was assessed. In addition, the weight of food consumed over the 13-hour period was measured and recorded. Fecal forms were scored according to a common scale associated with increasing fecal water to the wettest observation in the cage's collection funnel (1, normal pellet; 2, pellet adhering to sides of collection funnel due to moisture; 3, loss of normal pellet shape; 4, complete loss of shape with a blotting pattern; 5, liquid fecal streams evident). Fecal form score (FFS) was calculated for each group as the median of each individual rat's FFS within the group and reported in Table 7. Fecal samples were dried using a lyophilizer for at least 3 days, following which dry weight was recorded and fecal fluid content was calculated based on the difference between the wet and dry stool weights. Fecal fluid content was calculated as a change from the vehicle group mean. For urine samples, the volumes were determined gravimetrically. Urine samples were analyzed on an ion chromatography system (Thermo Fisher ICS-3000 or ICS-5000+) coupled with conductivity detectors. Chromatographic separation of cations was performed using an IonPac CS12A (Thermo Fisher) 2×250 mm analytical column with an isocratic elution using 25 mM methanesulfonic acid. Concentrations were interpolated from a standard curve (prepared in 10 mM HCl) for sodium based on retention time and peak area. Thirteen-s-hour urinary sodium excretion (mg/13-hours) was calculated by multiplying urinary sodium concentration by 13-hour urine volume. The urinary sodium excretion of compound treatment was normalized to dietary sodium intake and expressed as a percentage of the vehicle mean.

[2] = Rattus norvegicus, Sprague Dawley rats, read-out: Urinary Na (% of Vehicle, out/in)

Structure (SMILES)	% Restoration of Transit (gastrointestinal transit; oral gavage 15 mg/kg)	response vs control in vivo at 0.003 mg/kg ([1]; Rattus norvegicus, Sprague Dawley rats, oral gavage 0.003 mg/kg, read-out: Urinary Na (% of Vehicle, out/in)) [%]	response vs control in vivo at 0.01 mg/kg ([1]; Rattus norvegicus, Sprague Dawley rats, oral gavage 0.01 mg/kg, read-out: Urinary Na (% of Vehicle, out/in)) [%]	response vs control in vivo at 0.03 mg/kg [1, 2] [%]	response vs control in vivo at 0.1 mg/kg [1, 2] [%]	FFS (1-5) ([1]; 0.003 mg/kg)	FFS (1-5) ([1]; 0.01 mg/kg)	FFS (1-5) ([1]; 0.03 mg/kg)	FFS (1-5) ([1]; 0.1 mg/kg)	% Restoration of Transit (gastrointestinal transit; oral gavage 1.5 mg/kg)	% Restoration of Transit (gastrointestinal transit; oral gavage 5 mg/kg)	response vs control in vivo at 0.3 mg/kg [1, 2] [%]	FFS (1-5) ([1]; 0.3 mg/kg)
N#Cc1cc(Cl)cc2c1C[C@H](N1CCNCC1)[C@H]2Oc1ccc(S(=O)(=O)NCCOCCOCCNC(=O)NCCCCNC(=O)NCCOCCOCCNS(=O)(=O)c2ccc(O[C@H]3c4cc(Cl)cc(C#N)c4C[C@@H]3N3CCNCC3)cc2)cc1 [Example 41, 3-[2-(2-[2-[(4-[[(1S,2S)-6-Chloro-4-cyano-2-(piperazin-1-yl)-2,3-dihydro-1H-inden-1-yl]oxy]benzene)sulfonamido]ethoxy]ethoxy)ethyl]-1-[4-([[2-(2-[2-[(4-[[(1S,2S)-6-chloro-4-cyano-2-(piperazin-1-yl)-2,3-dihydro-1H-inden-1-yl]oxy]benzene)sulfonamido]ethoxy]ethoxy)ethyl]carbamoyl]amino)butyl]urea; bis(trifluoroacetic acid)]	A (<20%)	> 70	> 70	40 to 70	< 40	2	2	2	5	–	–	–	–
N#Cc1cc(Cl)cc2c1C[C@H](N1CCNCC1)[C@H]2Oc1ccc(S(=O)(=O)NCCOCCOCCNC(=O)NCCCCNC(=O)NCCOCCOCCNS(=O)(=O)c2ccc(O[C@H]3c4cc(Cl)cc(C#N)c4C[C@@H]3N3CCNCC3)c(F)c2)cc1F [Example 43, 3-[2-(2-[2-[(4-[[(1S,2S)-6-Chloro-4-cyano-2-(piperazin-1-yl)-2,3-dihydro-1H-inden-1-yl]oxy]-3-fluorobenzene)sulfonamido]ethoxy]ethoxy)ethyl]-1-[4-([[2-(2-[2-[(4-[[(1S,2S)-6-chloro-4-cyano-2-(piperazin-1-yl)-2,3-dihydro-1H-inden-1-yl]oxy]-3-fluorobenzene)sulfonamido]ethoxy]ethoxy)ethyl]carbamoyl]amino)butyl]urea; bis(trifluoroacetic acid)]	A (<20%)	–	–	–	–	–	–	–	–	B (20-40%)	A (<20%)	–	–
N#Cc1cc(Cl)cc2c1C[C@H](N1CCNCC1)[C@H]2Oc1ccc(S(=O)(=O)N[C@H]2CCN(CCOCCNC(=O)NCCCCNC(=O)NCCOCCN3CC[C@H](NS(=O)(=O)c4ccc(O[C@H]5c6cc(Cl)cc(C#N)c6C[C@@H]5N5CCNCC5)cc4)C3)C2)cc1 [Example 107, 4-([(1S,2S)-6-Chloro-4-cyano-2-(piperazin-1-yl)-2,3-dihydro-1H-inden-1-yl]oxy)-N—[(S)-1-(20-[(S)-3-([4-([(1S,2S)-6-chloro-4-cyano-2-(piperazin-1-yl)-2,3-dihydro-1H-inden-1-yl]oxy)phenyl]sulfonamido)pyrrolidin-1-yl]-7,14-dioxo-3,18-dioxa-6,8,13,15-tetraazaicosyl)pyrrolidin-3-yl]benzenesulfonamide; tetra(trifluoroacetate)]	–	–	–	40 to 70	40 to 70	–	–	3	3	–	–	< 40	3
N#Cc1cc(Cl)cc2c1C[C@H](N1CCNCC1)[C@H]2Oc1ccc(S(=O)(=O)N2CCC(NC(=O)CCCNC(=O)NCCCCNC(=O)NCCCC(=O)NC3CCN(S(=O)(=O)c4ccc(O[C@H]5c6cc(Cl)cc(C#N)c6C[C@@H]5N5CCNCC5)cc4)CC3)CC2)cc1 [Example 120, N^1,N^18-Bis(1-([4-([(1S,2S)-6-chloro-4-cyano-2-(piperazin-1-yl)-2,3-dihydro-1H-inden-1-yl]oxy)phenyl]sulfonyl)piperidin-4-yl)-6,13-dioxo-5,7,12,14-tetraazaoctadecanediamide]	–	–	–	> 70	40 to 70	–	–	2	3	–	–	< 40	4
CN(C)[C@H]1CCCN([C@H]2Cc3c(C#N)cc(Cl)cc3[C@@H]2Oc2ccc(S(=O)(=O)NCCOCCOCCNC(=O)NCCCCNC(=O)NCCOCCOCCNS(=O)(=O)c3ccc(O[C@H]4c5cc(Cl)cc(C#N)c5C[C@@H]4N4CCC[C@H](N(C)C)C4)cc3)cc2)C1 [Example 122, 4-([(1S,2S)-6-Chloro-4-cyano-2-[(S)-3-(dimethylamino)piperidin-1-yl]-2,3-dihydro-1H-inden-1-yl]oxy)-N-[26-([4-([(1S,2S)-6-chloro-4-cyano-2-[(S)-3-(dimethylamino)piperidin-1-yl]-2,3-dihydro-1H-inden-1-yl]oxy)phenyl]sulfonamido)-10,17-dioxo-3,6,21,24-tetraoxa-9,11,16,18-tetraazahexacosyl]benzenesulfonamide]	–	–	–	> 70	> 70	–	–	2	2	–	–	40 to 70	3
C[C@@H]1CN([C@H]2Cc3c(C#N)cc(Cl)cc3[C@@H]2Oc2ccc(S(=O)(=O)N[C@@H]3CCN(CCOCCNC(=O)NCCCCNC(=O)NCCOCCN4CC[C@@H](NS(=O)(=O)c5ccc(O[C@H]6c7cc(Cl)cc(C#N)c7C[C@@H]6N6CCN[C@H](C)C6)cc5)C4)C3)cc2)CCN1 [Example 133, 4-([(1S,2S)-6-Chloro-4-cyano-2-[(R)-3-methylpiperazin-1-yl]-2,3-dihydro-1H-inden-1-yl]oxy)-N—[(R)-1-(20-[(R)-3-([4-([(1S,2S)-6-chloro-4-cyano-2-[(R)-3-methylpiperazin-1-yl]-2,3-dihydro-1H-inden-1-yl]oxy)phenyl]sulfonamido)pyrrolidin-1-yl]-7,14-dioxo-3,18-dioxa-6,8,13,15-tetraazaicosyl)pyrrolidin-3-yl]benzenesulfonamide; bis(trifluoroacetic acid)]	–	–	–	> 70	< 40	–	–	3	3	–	–	< 40	3
N#Cc1cc(Cl)cc2c1C[C@H](N1CCNCC1)[C@H]2Oc1ccc(S(=O)(=O)N[C@H]2CCN(C(=O)CCCNC(=O)NCCCCNC(=O)NCCCC(=O)N3CC[C@H](NS(=O)(=O)c4ccc(O[C@H]5c6cc(Cl)cc(C#N)c6C[C@@H]5N5CCNCC5)cc4)C3)C2)cc1 [Example 143, 4-([(1S,2S)-6-Chloro-4-cyano-2-(piperazin-1-yl)-2,3-dihydro-1H-inden-1-yl]oxy)-N—[(S)-1-(18-[(S)-3-([4-([(1S,2S)-6-chloro-4-cyano-2-(piperazin-1-yl)-2,3-dihydro-1H-inden-1-yl]oxy)phenyl]sulfonamido)pyrrolidin-1-yl]-6,13,18-trioxo-5,7,12,14-tetraazaoctadecanoyl)pyrrolidin-3-yl]benzenesulfonamide]	–	–	–	40 to 70	< 40	–	–	3	3	–	–	< 40	4
